# B1: Construct 1585: SFFV promoter-hIL-10-ADAM10/17 cleavage site-PDGFRb TM-A(EAAAK)3A-d913 degron; minTK-hIL-12 (opposite direction); SEQ ID NO: 187 (nucleic acid)
# DNA: CCGATAAAATAAAAGATTTTATTTAGTCTCCAGAAAAAGGGGGGAATGAAAGACCCCACCTGTAGGTTTGGCAAGCTAGCTGCAGTAACGCCATTTTGCAAGGCATGGAAAAATACCAAACCAAGAATAGAGAAGTTCAGATCAAGGGCGGGTACATGAAAATAGCTAACGTTGGGCCAAACAGGATATCTGCGGTGAGCAGTTTCGGCCCCGGCCCGGGGCCAAGAACAGATGGTCACCGCAGTTTCGGCCCCGGCCCGAGGCCAAGAACAGATGGTCCCCAGATATGGCCCAACCCTCAGCAGTTTCTTAAGACCCATCAGATGTTTCCAGGCTCCCCCAAGGACCTGAAATGACCCTGCGCCTTATTTGAATTAACCAATCAGCCTGCTTCTCGCTTCTGTTCGCGCGCTTCTGCTTCCCGAGCTCTATAAAAGAGCTCACAACCCCTCACTCGGCGCGCCAGTCCTCCGACAGACTGAGTCGCCCGGGGGGGATCTGGAGCTCTCGAGAATTCATGCACTCATCTGCTCTCCTTTGCTGTCTCGTGCTCCTGACTGGAGTACGCGCGTCACCCGGTCAAGGGACACAAAGCGAAAACTCCTGTACGCATTTTCCGGGCAACCTCCCTAATATGCTTCGCGACTTGCGAGATGCATTTTCCAGGGTGAAGACCTTCTTCCAGATGAAGGACCAGTTGGATAATCTTCTCCTCAAGGAGTCTCTTTTGGAGGACTTCAAGGGCTACCTGGGATGTCAAGCCCTTAGCGAAATGATTCAGTTTTATCTTGAAGAGGTCATGCCGCAAGCTGAGAACCAGGACCCCGACATAAAAGCCCATGTGAACTCCCTCGGCGAGAATTTGAAGACGCTGAGACTTAGATTGAGAAGATGTCATAGATTTCTCCCATGTGAGAATAAGTCCAAGGCTGTCGAGCAGGTTAAGAATGCTTTCAATAAGTTGCAGGAAAAAGGAATCTATAAGGCAATGAGCGAGTTTGACATCTTTATTAACTACATTGAGGCTTATATGA
# modifications: misc_feature 1..1034 Description of Artificial Sequence: Synthetic polynucleotide
# B2: Construct 1584: SFFV promoter-hIL-10; minTK-hIL-12 (opposite direction); native hIL-10 without a degron; SEQ ID NO: 186 (nucleic acid)
# DNA: CCGATAAAATAAAAGATTTTATTTAGTCTCCAGAAAAAGGGGGGAATGAAAGACCCCACCTGTAGGTTTGGCAAGCTAGCTGCAGTAACGCCATTTTGCAAGGCATGGAAAAATACCAAACCAAGAATAGAGAAGTTCAGATCAAGGGCGGGTACATGAAAATAGCTAACGTTGGGCCAAACAGGATATCTGCGGTGAGCAGTTTCGGCCCCGGCCCGGGGCCAAGAACAGATGGTCACCGCAGTTTCGGCCCCGGCCCGAGGCCAAGAACAGATGGTCCCCAGATATGGCCCAACCCTCAGCAGTTTCTTAAGACCCATCAGATGTTTCCAGGCTCCCCCAAGGACCTGAAATGACCCTGCGCCTTATTTGAATTAACCAATCAGCCTGCTTCTCGCTTCTGTTCGCGCGCTTCTGCTTCCCGAGCTCTATAAAAGAGCTCACAACCCCTCACTCGGCGCGCCAGTCCTCCGACAGACTGAGTCGCCCGGGGGGGATCTGGAGCTCTCGAGAATTCATGCACTCATCTGCTCTCCTTTGCTGTCTCGTGCTCCTGACTGGAGTACGCGCGTCACCCGGTCAAGGGACACAAAGCGAAAACTCCTGTACGCATTTTCCGGGCAACCTCCCTAATATGCTTCGCGACTTGCGAGATGCATTTTCCAGGGTGAAGACCTTCTTCCAGATGAAGGACCAGTTGGATAATCTTCTCCTCAAGGAGTCTCTTTTGGAGGACTTCAAGGGCTACCTGGGATGTCAAGCCCTTAGCGAAATGATTCAGTTTTATCTTGAAGAGGTCATGCCGCAAGCTGAGAACCAGGACCCCGACATAAAAGCCCATGTGAACTCCCTCGGCGAGAATTTGAAGACGCTGAGACTTAGATTGAGAAGATGTCATAGATTTCTCCCATGTGAGAATAAGTCCAAGGCTGTCGAGCAGGTTAAGAATGCTTTCAATAAGTTGCAGGAAAAAGGAATCTATAAGGCAATGAGCGAGTTTGACATCTTTATTAACTACATTGAGGCTTATATGACTATGAAAATTAGAAACTAA
# modifications: misc_feature 1..1054 Description of Artificial Sequence: Synthetic polynucleotide
# Experiments:
# Assay type in all cases: cell-based
# Hep3B cells = assay: Nanoluciferase activity (Promega Nanoglo) in Hep3B cells transduced with AAV2/AAV8 nanoluciferase-degron constructs, with or without IMiD (Example 5); details: for luciferase activity relative to cells not treated / minimal effective dose in vitro: Hep3B cells transduced with AAV2 construct; for luciferase activity relative to cells not treated: 1-0.01 μM drug, all concentrations tested; for minimal effective dose in vitro: concentration that may be approaching the minimal effective dose; for Fold change relative to no drug: decrease in nanoluciferase activity, Hep3B cells transduced with AAV2 nanoluciferase/degron construct
# Procedure: AAV2 and AAV8 viral vector constructs were generated that expressed nanoluciferase as a chimeric protein fused to a C-terminal degron using an A(EAAK)3A linker (SEQ ID NO: 193). Constructs were generated using packaging vectors with either AAV2 or AAV8 capsid protein.
# Luciferase activity was assessed following the general protocol below: • Day 0: Hep3b cells were plated at 50,000 cells per well in a 96 well plate • Day 1: 1e6 vg/cell AAV2 or 3e6 vg/cell AAV8 was added to cells in presence or absence of 1 μM Lenalidomide (or 1 μM-0.01 μM Lenalidomide or Pomalidomide) • Day 3: Cells were lysed and luciferase activity was measured with Promega Nanoglo kit
# HEK293Ft cells [1] = assay: SEAP QuantiBlue assay of SEAP/degron constructs in HEK293Ft cells (Example 1); details: 1 μM lenalidomide vs no drug
# donor-derived T cells [2] = assay: SEAP QuantiBlue assay of SEAP/degron constructs in donor-derived T cells (Example 1); details: 1 μM lenalidomide vs no drug
# Procedure: A series of pL17d-based viral vector constructs were generated using Secreted Alkaline Phosphatase (SEAP) fused to a degron (d913 super degron) using various linkers, as described in Table 6A with sequences listed in Table 6B. The d913 super degron is described in more detail in International Application Pub. No. WO2019/089592A1, herein incorporated by reference for all purposes.
# (§1) SEAP assays were performed using the QuantiBlue kit (Invivogen; rep-qb1). […] The CliniMACS Prodigy utilizes a closed-system, single-use disposable kits for many different cell types. The automated program performs platelet washes, CD4+& CD8+ bead labeling, and positive selection over a magnet resulting in cell suspensions with high purity. Positively selected T cells were then sampled, analyzed for cell surface phenotype via flow cytometry and cryopreserved via a controlled rate freezer. • Cells were then thawed and activated on Day 0 (1e6 cells/mL in a 24 well plate were activated 3:1 with CD3/CD28 Dynabeads) • On Day 1, 100K GS units of virus were added to cells • On Day 2, fresh media was added to T cells • On Day 4, each well was split into 2 wells of 6 well plate with +/−1 μM lenalidomide • On Day 7, cells were pelleted and 20 uL supernatant from each well was harvested and incubated with 180 uL QuantiBlue (Invivogen) for 1 h at 37 deg, SEAP activity was read out on a plate reader at 655 nm
# HEK293Ft cells [3] = assay: SEAP QuantiBlue assay of Membrane-Cleavable Degron constructs in HEK293Ft cells (Example 2); details: 1 μM lenalidomide vs no drug
# donor-derived T cells [4] = assay: SEAP QuantiBlue assay of Membrane-Cleavable Degron constructs in donor-derived T cells (Example 2); details: supernatant, 1 μM lenalidomide vs no drug
# Procedure: A series of pL17d-based viral vector constructs were generated using Secreted Alkaline Phosphatase (SEAP) fused to a degron (d913 super degron) using various linkers, including transmembrane domain containing linkers, as described in Table 8A with sequences listed in Table 8B.
# as §1, with “into 6” for “into 2”, “of 48” for “of 6”, “lenalidomide (3 wells with drug, 3 wells without)” for “lenalidomide”
# Jurkat T cells = assay: SEAP QuantiBlue assay in Jurkat T cells (Example 3); details: supernatant, 1 μM lenalidomide vs no drug
# Procedure: The viral vector constructs were generated, as described above, using Secreted Alkaline Phosphatase (SEAP) fused to a degron (d913 super degron) with various linkers, including transmembrane domain containing linkers. The constructs examined are described in Table 10.
# SEAP assays were performed using the QuantiBlue kit (Invivogen; rep-qb1). For experiments performed in Jurkat cells, the following protocol was followed: • On Day 1, cells were plated at 1e6 cells in 1 mL in a 24 well plate and 300 k GS units of virus was added • On Day 3, cells were split into 6 wells of a 48 well plate (1e5 cells in 0.5 mL) and drug was added to 3 of these wells (1 μM lenalidomide) • On Day 6, cells were pelleted and 20 uL supernatant from each well was harvested and incubated with 180 uL QuantiBlue (Invivogen) for 1 h at 37 deg, SEAP activity was read out on a plate reader at 655 nm
# donor-derived T cells [5] = assay: hIL-10 secretion from donor T cells by Luminex assay, normalized to hIL-12 (Example 4); details: for % 1 uM Len of no drug (IL10/IL12 ratio) / Mean IL10/IL12 ratio (1 uM Len) / Mean IL10/IL12 ratio (no drug): donor T cell supernatant; for % 1 uM Len of no drug (IL10/IL12 ratio): 1 uM lenalidomide relative to no drug; for Mean IL10/IL12 ratio (1 uM Len): 1 uM lenalidomide; for Mean IL10/IL12 ratio (1 uM Len) / Mean IL10/IL12 ratio (no drug): hIL-10 normalized to hIL-12
# Procedure: The viral vectors also expressed human IL-12 (hIL-12) from a separate promoter as a normalization control for cell number, viability, and transduction efficiency.
# Cytokine secretion was assessed following the general protocol below: • Day 0: Donor T cells (enriched as previously described above) were thawed and activated with CD3/CD28 Dynabeads • Day 1: T cells were transduced with viral constructs (100 k GoStix values per 1e6 cells) • Day 2: Media was changed • Day 4: Cells were passaged • Day 7: Cells were spun down, washed 3× with media, then resuspended in media+/−1 μM Lenalidomide • Day 9: Supernatants were harvested and were evaluated for hIL10 and hIL12 concentration by Luminex assay
# [6] = SEAP absorbance divided by cell count per well
Molecule,luciferase activity relative to cells not treated (Hep3B cells),minimal effective dose in vitro (Hep3B cells),Fold change relative to no drug (Hep3B cells; drug dose 0.01 uM),Fold change relative to no drug (Hep3B cells; drug dose 0.05 uM),Fold change relative to no drug (Hep3B cells; drug dose 0.1 uM),Fold change relative to no drug (Hep3B cells; drug dose 0.5 uM),Fold change relative to no drug (Hep3B cells; drug dose 1 uM),% 1 uM Len of no drug (IL10/IL12 ratio) (donor-derived T cells [5]),Mean IL10/IL12 ratio (1 uM Len) (donor-derived T cells [5]),Mean IL10/IL12 ratio (no drug) (donor-derived T cells [5]),also measured
Nc1cccc2c1CN(C1CCC(=O)NC1=O)C2=O (centres unmarked) [lenalidomide],significant decreases in luciferase activity,~0.01 µM,6 fold,18 fold,25 fold,35 fold,60 fold,–,–,–,–
Nc1cccc2c1C(=O)N(C1CCC(=O)NC1=O)C2=O (centres unmarked) [pomalidomide],significant decreases in luciferase activity,~0.01 µM,4 fold,12 fold,19 fold,18 fold,19 fold,–,–,–,–
Construct 419: pL17d viral vector construct expressing SEAP without a degron; SEQ ID NO: 179 [reference compound],–,–,–,–,–,–,–,–,–,–,% SEAP OFF vs. ON (Len treated/untreated *100) Normalized to cell count (HEK293Ft cells [1]; [6]): 133%; % SEAP OFF vs. ON (Len treated/untreated *100) (HEK293Ft cells [1]; supernatant): 103%; % SEAP OFF vs. ON (Len treated/untreated *100) Normalized to cell count (donor-derived T cells [2]; [6]): 169%; % SEAP OFF vs. ON (Len treated/untreated *100) (donor-derived T cells [2]; supernatant): 127%; % SEAP OFF vs. ON (Len treated/untreated *100) Normalized to cell count (HEK293Ft cells [3]; [6]): 104.3%; % SEAP OFF vs. ON (Len treated/untreated *100) (HEK293Ft cells [3]; supernatant): 70%; % SEAP OFF vs. ON (Len treated/untreated *100) (donor-derived T cells [4]): 129%; OFF % of ON (SEAP enzymatic activity) (Jurkat T cells): 105.3 (ns) %
B1,–,–,–,–,–,–,–,56%,1.65,2.97,–
B2,–,–,–,–,–,–,–,131%,4.09,3.11,"hIL-10 secretion upon addition of lenalidomide (donor-derived T cells [5]; donor-derived T cells, 1 μM lenalidomide): did not result in reduced secretion"

# — US20240091358A1, “[…] REGULATION” (Senti Biosciences, Inc., priority 2021, published 2024)
